The values that follow come from patent US7348328B2, “MCH antagonists for the treatment of obesity” (Schering Corporation, priority 2001, dated 2008).

The target of one experiment is T1, MCH receptor (Homo sapiens, UniProt Q99705).
T1 construct: expressed in transfected cells; host or cells: CHO cells (membranes)
T1 sequence (Q99705 whole entry): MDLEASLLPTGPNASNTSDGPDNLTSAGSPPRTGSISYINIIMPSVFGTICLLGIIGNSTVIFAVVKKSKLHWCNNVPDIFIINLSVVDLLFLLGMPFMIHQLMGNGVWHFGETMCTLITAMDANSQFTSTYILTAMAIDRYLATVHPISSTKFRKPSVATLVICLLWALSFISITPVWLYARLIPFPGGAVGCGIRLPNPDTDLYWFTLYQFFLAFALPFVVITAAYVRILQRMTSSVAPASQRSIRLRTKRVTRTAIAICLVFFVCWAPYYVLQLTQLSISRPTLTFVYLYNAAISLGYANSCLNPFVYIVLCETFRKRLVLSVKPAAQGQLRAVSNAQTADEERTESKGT
Description: MCH Receptor Binding Assay. Particulars: Binding Activity; membranes from CHO cells expressing the MCH receptor, [125I]-MCH; read-out: MCH Ki. How it is done: MCH Receptor Binding Assay:
Membranes from CHO cells expressing the MCH receptor were prepared by lysing cells with 5 mM HEPES for 15 min at 4C. Cell lysates were centrifuged ([…], 15 min) and the pellet was resuspended in 5 mM HEPES. For each 96-well plate (Microlite, Dynex Technologies), 1 mg of cell membranes were incubated with 10 mg of wheat germ agglutinin SPA beads (Amersham) for 5 min at 4 C. in a volume of 10 ml of binding buffer (25 mM HEPES, 10 mM MGCl2, 10 mM NaCl, 5 mM MnCl2, 0.1% BSA). The membrane/bead mixture was centrifuged (1500×g, 3.5 min), the supernatant was aspirated, and the pellet was resuspended in 10 ml binding buffer. The centrifugation, aspiration and resuspension were then repeated. […] Nonspecific binding was determined by including 1 μM MCH in the binding reaction. The binding reaction was incubated at room temperature for 2 h. Plates were then analyzed in a TOPCOUNT microplate scintillation counter (Packard). Data was analyzed and Ki values were determined using GraphPad Prim.
As usually defined, the Ki is the equilibrium dissociation constant of an inhibitor or competing ligand from its target. In the case of `N#Cc1cccc([C@]23CC[C@@H](N(CCN4CCNCC4)C(=O)Nc4ccc(F)c(C(F)(F)F)c4)[C@H]2C3)c1` [Example 210], the Ki came to 20 nM.

On to `N#Cc1cccc([C@]23CC[C@@H](N(CCN4CCCC4)C(=O)Nc4ccc(F)c(Cl)c4)[C@H]2C3)c1` [Example 189], for which the Ki is 18 nM.

Regarding `N#Cc1cccc([C@]23CC[C@@H](N(CCN4CC[C@@H](O)C4)C(=O)Nc4ccc(F)c(C(F)(F)F)c4)[C@H]2C3)c1` [Example 198], the Ki was found to be 11 nM.

On to `N#Cc1cccc([C@]23CC[C@@H](N(CCN4CCCCC4)C(=O)Nc4ccc(F)c(Cl)c4)[C@H]2C3)c1` [Example 194], for which the Ki was determined as 4.1 nM.

`N#Cc1cccc([C@]23CC[C@@H](N(CCN4CCCC4)C(=O)Nc4cc(Cl)cc(Cl)c4)[C@H]2C3)c1` [Example 188]: the Ki was found to be 15 nM.

Staying with this experiment, now noted: Table 1b, preferred compounds; read-out: MCH R1 Ki.
Consider `N#Cc1cccc([C@@]23CC[C@@H](N(CCCN4CC[C@@H](O)C4)C(=O)Nc4ccc(F)c(Cl)c4)CC2C3)c1` (some centres unmarked) [drawing 656], for which the Ki is 1.8 nM.

For `CN1CCN(CCCCN(C(=O)Nc2ccc(F)c(Cl)c2)C2CC[C@@]3(c4ccc(C#N)cc4)CC23)CC1` (some centres unmarked), the Ki turned out to be 2.9 nM.

Take `N#Cc1ccc(C2=CCC(N(CCN3CCCC3)C(=O)Nc3ccc(F)c(Cl)c3)CC2)cc1` (centres unmarked): the Ki turned out to be 11 nM.

As for `O=C(Nc1ccc(F)c(F)c1)N(CCCN1CCCC1)[C@@H]1CC[C@@]2(c3cccc(-c4ncc[nH]4)c3)CC2C1` (some centres unmarked), the Ki was determined as 5.4 nM.

As to `CN(C)CCN(C(=O)Nc1ccc(F)c(Cl)c1)[C@@H]1CC[C@]2(c3cccc(C#N)c3)C[C@H]12` [drawing 673], the Ki came to 14 nM.

Regarding `CCOC(=O)NC1CCN(CCCN(C(=O)Nc2ccc(F)c(F)c2)[C@@H]2CC[C@@]3(c4cccc(C#N)c4)CC3C2)C1` (some centres unmarked), the inhibition constant (Ki) was determined as 5.9 nM.

Consider `N#Cc1cccc(C23CCC(N(CCN4CCCC4)C(=O)Nc4cc(Cl)cc(Cl)c4)C2C3)c1` (centres unmarked), for which the Ki was 15 nM.

With `CC(C)N(CCN(C(=O)Nc1cccc(F)c1)[C@H]1CC[C@]2(c3cccc(C#N)c3)CC2C1)C(C)C` (some centres unmarked), the Ki came to 2.1 nM.

As for `N#Cc1cccc([C@@]23CC[C@@H](N(CCN4CC[C@@H](O)C4)C(=O)Nc4ccc(F)c(C(F)(F)F)c4)CC2C3)c1` (some centres unmarked) [drawing 651], the Ki was determined as 6.2 nM.

As for `N#Cc1cccc([C@@]23CC[C@@H](N(CCN4C[C@H]5C[C@H]5[C@H]4CO)C(=O)Nc4cc(Cl)nc(Cl)c4)CC2C3)c1` (some centres unmarked), the Ki worked out at 3 nM.

On to `N#Cc1cccc([C@@]23CC[C@@H](N(CCCN4CC[C@@H](F)C4)C(=O)Nc4ccc(F)c(F)c4)CC2C3)c1` (some centres unmarked), for which the Ki was 5 nM.

Regarding `CSc1cccc([C@@]23CC[C@@H](N(CCCN4CCCC4)C(=O)Nc4ccc(F)c(F)c4)CC2C3)c1` (some centres unmarked), the Ki was found to be 22 nM.
